Laboratory results published in US11708348B2, “Protease inhibitors for treatment of coronavirus infections” (The Scripps Research Institute, priority 2021, dated 2023).

test system: SARS-CoV-2 strain USA-WA1/2020; assay: microbe, parasite or virus in culture; assay type: cell-based; details: HeLa-ACE2 cells, SARS-CoV-2 infection, 24 h; class symbols; read-out: EC50, uM (Hela)

For COc1cccc2[nH]c(C(=O)N[C@@H](CC(C)C)C(=O)N[C@@H](C[C@@H]3CCNC3=O)C(=O)COc3c(F)cccc3F)cc12 [Compound 7, N-((S)-1-(((S)-4-(2,6-difluorophenoxy)-3-oxo-1-((S)-2-oxopyrrolidin-3-yl)butan-2-yl)amino)-4-methyl-1-oxopentan-2-yl)-4-methoxy-1H-indole-2-carboxamide], the EC50 was 0.2 to 0.5 µM.

same assay, conditions: Severe acute respiratory syndrome coronavirus 2, HeLa-ACE2, 24 h, HeLa-ACE2 cells, SARS-CoV-2 infection, 24 h; bound printed in cell; read-out: EC50, uM (Hela)

Compound O=C(NC1CCNCC1)C(=O)N[C@@H](CC1CC1)C(=O)N[C@@H](C[C@@H]1CCNC1=O)C(=O)COC(F)(F)F [Compound 232, N1-((S)-3-cyclopropyl-1-oxo-1-(((S)-3-oxo-1-((S)-2-oxopyrrolidin-3-yl)-4-(trifluoromethoxy)butan-2-yl)amino)propan-2-yl)-N2-(piperidin-4-yl)oxalamide] has an EC50 greater than 1 µM.

same assay, conditions: Severe acute respiratory syndrome coronavirus 2, HeLa-ACE2, 24 h, HeLa-ACE2 cells, SARS-CoV-2 infection, 24 h; class symbols; read-out: EC50, uM (Hela)

CC(C)C[C@H](NC(=O)C(=O)Nc1cccnc1C(F)(F)F)C(=O)N[C@@H](C[C@@H]1CCNC1=O)C(=O)COc1c(F)c(F)cc(F)c1F [Compound 48, N1-((S)-4-methyl-1-oxo-1-(((S)-3-oxo-1-((S)-2-oxopyrrolidin-3-yl)-4-(2,3,5,6-tetrafluorophenoxy)butan-2-yl)amino)pentan-2-yl)-N2-(2-(trifluoromethyl)-pyridin-3-yl)oxalamide] and O=C(Nc1ccccc1)C(=O)N[C@@H](CC1CCC1)C(=O)N[C@@H](C[C@@H]1CCNC1=O)C(=O)COc1c(F)c(F)cc(F)c1F [Compound 31, N1-((S)-3-cyclobutyl-1-oxo-1-(((S)-3-oxo-1-((S)-2-oxopyrrolidin-3-yl)-4-(2,3,5,6-tetra-fluorophenoxy)butan-2-yl)amino)propan-2-yl)-N2-phenyloxalamide] cannot be ordered by EC50: less than 0.05 µM for the first, less than 0.05 µM for the second.

CC(C)(F)C[C@H](NC(=O)c1cc2cc(F)ccc2[nH]1)C(=O)N[C@@H](C[C@@H]1CCNC1=O)C(=O)COc1c(F)c(F)cc(F)c1F [Compound 18, 5-fluoro-N-((S)-4-fluoro-4-methyl-1-oxo-1-(((S)-3-oxo-1-((S)-2-oxopyrrolidin-3-yl)-4-(2,3,5,6-tetrafluorophenoxy)butan-2-yl)amino)pentan-2-yl)-1H-indole-2-carboxamide] and O=C(N[C@@H](CCc1ccccc1)C(=O)N[C@@H](C[C@@H]1CCNC1=O)C(=O)COc1c(F)c(F)cc(F)c1F)c1cc2cc(F)ccc2[nH]1 [Compound 12, 5-fluoro-N-((S)-1-oxo-1-(((S)-3-oxo-1-((S)-2-oxopyrrolidin-3-yl)-4-(2,3,5,6-tetrafluorophenoxy)butan-2-yl)amino)-4-phenylbutan-2-yl)-1H-indole-2-carboxamide] fall in the same range of EC50: 0.5 to 1 µM for the first, 0.5 to 1 µM for the second.

CC(C)C[C@@H](OCC(C)(C)O)C(=O)N1CC2(CC2)C[C@H]1C(=O)N[C@@H](C[C@@H]1CCNC1=O)C(=O)COC(F)(F)F [Compound 334, (S)-5-((R)-2-(2-hydroxy-2-methylpropoxy)-4-methylpentanoyl)-N-((S)-3-oxo-1-((S)-2-oxopyrrolidin-3-yl)-4-(trifluoromethoxy)butan-2-yl)-5-azaspiro[2.4]heptane-6-carboxamide] and CC(C)C[C@H](NC(=O)C(=O)NC1COC1)C(=O)N[C@@H](C[C@@H]1CCNC1=O)C(=O)COC(F)(F)F [Compound 244, N1-((S)-4-methyl-1-oxo-1-(((S)-3-oxo-1-((S)-2-oxopyrrolidin-3-yl)-4-(trifluoromethoxy)butan-2-yl)amino)pentan-2-yl)-N2-(oxetan-3-yl)oxalamide] fall in the same range of EC50: 0.05 to 0.2 µM for the first, 0.05 to 0.2 µM for the second.

Compared with COc1cccc2[nH]c(C(=O)N[C@@H](CC(C)C)C(=O)N[C@@H](C[C@@H]3CCNC3=O)C(=O)COC(F)F)cc12 [Compound 198, N—((S)-1-(((S)-4-(difluoromethoxy)-3-oxo-1-((S)-2-oxopyrrolidin-3-yl)butan-2-yl)amino)-4-methyl-1-oxopentan-2-yl)-4-methoxy-1H-indole-2-carboxamide], COC[C@H](Nc1ccccc1F)C(=O)N[C@@H](CC(C)C)C(=O)N[C@@H](C[C@@H]1CCNC1=O)C(=O)COC(F)(F)F [Compound 236, (S)-2-((S)-2-((2-fluorophenyl)amino)-3-methoxypropanamido)-4-methyl-N-((S)-3-oxo-1-((S)-2-oxopyrrolidin-3-yl)-4-(trifluoromethoxy)butan-2-yl)pentanamide] is lower in EC50: 0.2 to 0.5 µM for the first, less than 0.05 µM for the second. The second is the more potent here.

First: CC1(NC(=O)C(=O)N2C[C@@H]3CCC[C@@H]3[C@H]2C(=O)N[C@@H](C[C@@H]2CCNC2=O)C(=O)COC(F)(F)F)CC1 [Compound 270, (1S,3aR,6aS)-2-(2-((l-methylcyclopropyl)-amino)-2-oxoacetyl)-N-((S)-3-oxo-1-((S)-2-oxopyrrolidin-3-yl)-4-(trifluoromethoxy)butan-2-yl)octahydrocyclo-penta[c]pyrrole-1-carboxamide]
Second: CC(C)C[C@H](NC(=O)C(=O)Nc1ccccc1F)C(=O)N[C@@H](C[C@@H]1CCCNC1=O)C(=O)COC(F)(F)F [Compound 219, N^1-(2-fluorophenyl)-N^2—((S)-4-methyl-1-oxo-1-(((S)-3-oxo-1-((S)-2-oxopiperidin-3-yl)-4-(trifluoromethoxy)butan-2-yl)amino)pentan-2-yl)oxalamide]
The EC50 of the first is higher: 0.05 to 0.2 µM for the first, less than 0.05 µM for the second. The second is the more potent here.

same assay, conditions: Severe acute respiratory syndrome coronavirus 2, HeLa-ACE2, 24 h, HeLa-ACE2 cells, SARS-CoV-2 infection, 24 h; read-out: EC50, uM (Hela)

O=C1NCC[C@H]1C[C@H](NC(=O)[C@@H]1CC2(CC2)CN1C(=O)CCC(F)F)C(=O)COC(F)(F)F [Compound 683, (S)-5-(4,4-difluorobutanoyl)-N-((S)-3-oxo-1-((S)-2-oxopyrrolidin-3-yl)-4-(trifluoromethoxy)butan-2-yl)-5-azaspiro[2.4]heptane-6-carboxamide] and CC(F)(F)CCC(=O)N1CC2(CC2)C[C@@H]1C(=O)N[C@H](C[C@@H]1CCNC1=O)C(=O)COC(F)(F)F [Compound 750, (R)-5-(4,4-difluoropentanoyl)-N-((R)-3-oxo-1-((S)-2-oxopyrrolidin-3-yl)-4-(trifluoromethoxy)butan-2-yl)-5-azaspiro[2.4]heptane-6-carboxamide] fall in the same range of EC50: 0.05 to 0.2 µM for the first, 0.05 to 0.2 µM for the second.

Cc1cc(C(=O)N2C[C@@H]3CCC[C@@H]3[C@H]2C(=O)N[C@@H](C[C@@H]2CCNC2=O)C(=O)COC(F)(F)F)no1 [Compound 545, (1S,3aR,6aS)-2-(5-methylisoxazole-3-carbonyl)-N-((S)-3-oxo-1-((S)-2-oxopyrrolidin-3-yl)-4-(trifluoromethoxy)butan-2-yl)octahydrocyclopenta[c]pyrrole-1-carboxamide] and O=C1NCC[C@H]1C[C@H](NC(=O)[C@@H]1[C@H]2CCC[C@H]2CN1C(=O)c1cc(C(F)(F)F)on1)C(=O)COC(F)(F)F [Compound 483, (1S,3aR,6aS)-N-((S)-3-oxo-1-((S)-2-oxopyrrolidin-3-yl)-4-(trifluoromethoxy)butan-2-yl)-2-(5-(trifluoromethyl)-isoxazole-3-carbonyl)octahydro-cyclopenta[c]pyrrole-l-carboxamide] fall in the same range of EC50: 0.05 to 0.2 µM for the first, 0.05 to 0.2 µM for the second.

Compared with CC(C)C[C@@H](O)C(=O)N1CCC2(CC2)C[C@H]1C(=O)N[C@@H](C[C@@H]1CCNC1=O)C(=O)COC(F)(F)F [Compound 640, (S)-6-((R)-2-hydroxy-4-methylpentanoyl)-N-((S)-3-oxo-1-((S)-2-oxopyrrolidin-3-yl)-4-(trifluoromethoxy)butan-2-yl)-6-azaspiro[2.5]octane-5-carboxamide], C[C@H](C[C@@H](O)C(=O)N1CC2(CC2)C[C@H]1C(=O)N[C@@H](C[C@@H]1CCNC1=O)C(=O)COC(F)(F)F)C(F)(F)F (single isomer, unassigned) [Compound 426] is lower in EC50: 0.05 to 0.2 µM for the first, less than 0.05 µM for the second. The second is the more potent here.

CC(C)Cn1cc(C(=O)N2CC3(CC3)C[C@H]2C(=O)N[C@@H](C[C@@H]2CCNC2=O)C(=O)COC(F)(F)F)nn1 [Compound 695, (S)-5-(1-isobutyl-1H-1,2,3-triazole-4-carbonyl)-N-((S)-3-oxo-1-((S)-2-oxopyrrolidin-3-yl)-4-(trifluoromethoxy)butan-2-yl)-5-azaspiro[2.4]heptane-6-carboxamide] and CC(O)C(F)(F)C(=O)N1CC2(CC2)C[C@H]1C(=O)N[C@@H](C[C@@H]1CCNC1=O)C(=O)COC(F)(F)F (stereo partly drawn) [Compound 756, (6S)-5-(2,2-difluoro-3-hydroxybutanoyl)-N-((S)-3-oxo-1-((S)-2-oxopyrrolidin-3-yl)-4-(trifluoromethoxy)butan-2-yl)-5-azaspiro[2.4]heptane-6-carboxamide] fall in the same range of EC50: 0.05 to 0.2 µM for the first, 0.05 to 0.2 µM for the second.

Cc1ccccc1NC(=O)C(=O)N[C@@H](CC1CC1)C(=O)N[C@@H](C[C@@H]1CCNC1=O)C(=O)COC(F)(F)F [Compound 507, N1-((S)-3-cyclopropyl-1-oxo-1-(((S)-3-oxo-1-((S)-2-oxopyrrolidin-3-yl)-4-(trifluoromethoxy)butan-2-yl)amino)propan-2-yl)-N2-(o-tolyl)oxalamide] and O=C(N[C@@H](CC1CC1)C(=O)N[C@@H](C[C@@H]1CCNC1=O)C(=O)COC(F)(F)F)c1cc(Cc2ccccc2)on1 [Compound 462, 5-benzyl-N-((S)-3-cyclopropyl-1-oxo-1-(((S)-3-oxo-1-((S)-2-oxopyrrolidin-3-yl)-4-(trifluoromethoxy)butan-2-yl)amino)propan-2-yl)isoxazole-3-carboxamide] cannot be ordered by EC50: less than 0.05 µM for the first, less than 0.05 µM for the second.

In the case of O=C(NC1CC1)C(=O)N1CC2(CC2)C[C@H]1C(=O)N[C@@H](C[C@@H]1CCNC1=O)C(=O)COC(F)(F)F [Compound 746, (S)-5-(2-(cyclopropylamino)-2-oxoacetyl)-N-((S)-3-oxo-1-((S)-2-oxopyrrolidin-3-yl)-4-(trifluoromethoxy)butan-2-yl)-5-azaspiro[2.4]heptane-6-carboxamide], the EC50 was 0.05 to 0.2 µM.

same assay, conditions: Severe acute respiratory syndrome coronavirus 2, HeLa-ACE2, 24 h; read-out: EC50, uM (Hela)

In the case of CC(C)C[C@H](NC(=O)C(=O)Nc1ccccc1)C(=O)N[C@@H](C[C@@H]1CCNC1=O)C(=O)COP(=O)(c1ccccc1)c1ccccc1 [Compound 73, (S)-3-((S)-4-methyl-2-(2-oxo-2-(phenylamino)acetamido)-pentanamido)-2-oxo-4-((S)-2-oxopyrrolidin-3-yl)butyl-diphenylphosphinate], the EC50 was 0.05 to 0.2 µM.
